Patent US20160185820A1, “PRO[…], A GENE TRANSFER ENHANCER” (PHARIS BIOTEC GMBH, priority 2013, published 2016)
Non-standard residues stand in square brackets, D forms with d. Residues, ends and D or L forms follow the SMILES beside them. No end group written: not given here. pGlu = O=C1CC[C@@H](C(=O)O)N1

Columns and labels:
cells = test: Transduction of cells with protransduzin B; format: cell-based; details: 25 μg/ml protransduzin B, cells incubated 2 days
Experimental: Dissolve 0.5 mg of protransduzin B in 50 μl of DMSO. Then add 450 μl of PBS to the solution, fibrils forming within 3 min. Add this stock solution (1 mg/ml) to the vectors to obtain a concentration of protransduzin B of 25 μg/ml. Vortex the solution for 1 min, then centrifuge with 5000 g for 5 min. The supernatant is discarded, and the pellet is suspended in a little PBS and added to the cells. The cells are incubated in an incubator for 2 days.

[1] = Storage stability in aqueous solution (HPLC chromatogram, FIG. 1); format: physicochemical; details: storage at 4° C. for 13 days
Experimental: In the left column of FIG. 1 (HPLC chromatogram), results for protransduzin A upon storage for 0-13 days at −20° C. and at 4° C. (13 days) are compared with the results for protransduzin B under the same conditions.

Row | Compound | cells transduced (cells) | transduction rate (cells) | degradation upon storage (HPLC peak height) [1]
1 | CC[C@H](C)[C@H](NC(=O)[C@H](CCCCN)NC(=O)[C@H](CS)NC(=O)[C@@H]1CCC(=O)N1)C(=O)N[C@@H](CCCCN)C(=O)N[C@@H](CCC(N)=O)C(=O)N[C@H](C(=O)N[C@H](C(=O)N[C@@H](CC(N)=O)C(=O)N[C@@H](CCSC)C(=O)N[C@@H](Cc1c[nH]c2ccccc12)C(=O)N[C@@H](CCC(N)=O)C(=O)O)[C@@H](C)CC)[C@@H](C)CC [protransduzin B] ([pGlu]CKIKQIINMWQ-OH) | Up to 96% | significantly enhanced | hardly degraded at all
2 | QCKIKQIINMWQ [protransduzin A, reference compound] |  |  | degraded almost to one half
